Data from patent US20100173332A1, “Method for the Fluorescent Detection of Nitroreductase Activity Using Nitro-Substituted Aromatic Compounds” (Auckland Uniservices Limited, priority 2006, published 2010).
Entries after “also recorded” stand apart in the source; their conditions may differ. Structures can show the parent of a compound that is named as a salt. Each block holds one compound with its values, some of them ahead of it.

Tests used:
[1] = target: T1, Escherichia coli nfsB (NfsB) (Escherichia coli, UniProt P38489); assay: Multiplexed reporter detection with compounds 4 and 16 in MDA-231 cells expressing nfsB; format: cell-based; details: 100 μM, 4 h, platereader, MDA-231 WT/NfsB/CYPOR
T1 construct: expressed in transfected cells; host or cells: MDA231 (MDA-231) human breast cancer cell line, clonal derivative MDA231 NTR
T1 sequence (P38489 whole entry): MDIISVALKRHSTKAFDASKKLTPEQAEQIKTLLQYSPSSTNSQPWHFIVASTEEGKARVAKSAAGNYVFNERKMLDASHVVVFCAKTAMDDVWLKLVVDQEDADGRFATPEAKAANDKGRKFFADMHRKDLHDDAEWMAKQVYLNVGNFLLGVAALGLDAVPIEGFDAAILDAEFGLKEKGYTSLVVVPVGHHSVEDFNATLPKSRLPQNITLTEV
Procedure: Compounds 4 and 16 (as representative nitro-substituted aromatic compounds of the present invention) were utilized to exemplify the ability to detect individual cell populations. […] 30,000 cells were seeded into a plastic 96-well plate in a volume of 0.1 mL. After 2 h attachment samples were incubated with either 200 μM 16 or 100 μM 4 by dilution of DMSO stock solutions into culture medium and addition of 0.1 mL directly into wells. Plates were incubated for 4 h before being read on a fluorescent platereader at Ex/Em 355/460 and 485/535. Values represent the fluorescence in the presence of cells—blank (fluorescence in the absence of cells). When the data were collated it was evident that the fluorescent output of each cell population could be identified with minimal interference from the other reductases-generated fluorescent molecules. […] To establish the single cell specificity of compounds 4 and 16 for detection of activities in a mixed (co-cultured) cell population, cells were examined by fluorescent microscopy following concurrent exposure to compounds 4 and 16. […] Samples were incubated at 37° C. for 45 minutes, washed three times in PBS and images were acquired on a Nikon TE-2000 inverted fluorescence microscope. […]

[2] = target: T2, E. coli nitroreductase (nfsB) (Escherichia coli, UniProt P38489); assay: Entrapment of fluorescent products within nitroreductase expressing HCT116 cells; format: cell-based; details: washed; for cellular retention of fluorescence in nitroreductase expressing but not parental HCT116 cells: 10 μM for 1.5 hr, 6 hours post-exposure
T2 construct: expressed in transfected cells; host or cells: MDA231 (MDA-231) human breast cancer cell line, clonal derivative MDA231 NTR
T2 sequence (P38489 whole entry): as above
Procedure: The human colorectal cancer cell line (HCT116^WT) and a clonal derivative (HCT116^NTR) engineered to express the reporter gene E. coli nitroreductase (nfsB) under the control of a constitutive promoter were seeded onto glass coverslips at an equal density (50:50). Cells were equilibrated to 37° C., 5% CO2, and compound 1 and 13 was added to a final concentration of 100 μM for 1 hr. Cells were washed free of compound after 1 hour and fluorescence was monitored as a function of time (FIG. 8).
In further screening (FIG. 9), the human colorectal cancer cell line (HCT116^WT) and a clonal derivative (HCT116^NTR) engineered to express the reporter gene E. coli nitroreductase (nfsB) under the control of a constitutive promoter were seeded separately into a 96-well glass plate. Cells were equilibrated to 37° C., 5% CO2, and compounds were added to a final concentration of 10 μM for 1.5 hr. Cells were washed free of compound and fluorescence was monitored 6 hours post-exposure. […] The image has been rendered monochromatic for the purposes of publication quality.

[3] = target: T3, NAD(P)H dehydrogenase quinone 1 (DT-diaphorase; NQO1) (Homo sapiens, UniProt P15559); assay: Detecting human aerobic nitroreductase activity in MDA231 DTD cells; format: cell-based; details: for fluorescent signal in the presence of human NQO1 expression: MDA231 DTD cells, 100 μM, 4 hr (FIG. 5)
T3 construct: expressed in transfected cells; host or cells: MDA231 human breast cancer cell line, clonal derivative MDA231 DTD
T3 sequence (P15559 whole entry): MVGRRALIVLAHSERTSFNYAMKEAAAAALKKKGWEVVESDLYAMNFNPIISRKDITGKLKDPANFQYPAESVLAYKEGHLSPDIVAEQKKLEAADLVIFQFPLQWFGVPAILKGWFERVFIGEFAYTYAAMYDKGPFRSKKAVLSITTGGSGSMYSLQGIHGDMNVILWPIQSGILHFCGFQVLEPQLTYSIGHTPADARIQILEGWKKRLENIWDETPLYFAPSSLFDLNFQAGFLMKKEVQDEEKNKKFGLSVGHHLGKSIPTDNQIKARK
Procedure: The human breast cancer cell line (MDA231^WT) and a clonal derivative (MDA231^DTD) engineered to express the human aerobic reductase, NAD(P)H dehydrogenase quinone 1 (DT-diaphorase; NQO1) under the control of a constitutive promoter were seeded into 96-well plates at a density of 1×10^5 cells/well. When samples were equilibrated to 37° C., 5% CO2 for 2 hr and compounds 1 to 15 were added to a final concentration of 100 μM for 4 hr. Test groups were cell-free culture media alone (control), MDA231^WT and MDA231^DTD. The fluorescence signal was monitored at 355/460 except for compounds 4 and 11 that were monitored at 405/585 and compounds 8 and 10 that were monitored at 355/585 and 355/535 respectively (FIG. 5).
In a further exemplification, the human breast cancer cell line (MDA231^WT) and a clonal derivative (MDA231^DTD) engineered to express the human NQO1 gene (DT-diaphorase) under the control of a constitutive promoter were seeded into 96-well tissue culture plates at 1×10^5 cells/well. Samples were equilibrated to 37° C., 5% CO2, compound (1) (6-nitro-4(1H)-quinolinone) was added to a final concentration of 300 μM. Test groups were culture media alone (control), MDA231^WT cells and MDA231^DTD cells. The rate of fluorescence signal generation at 355/460 was monitored as a function of time (FIG. 6).

[4] = Aqueous stability in minimal essential media in the absence of cells (background fluorescence); format: physicochemical; details: for increase in background florescence in culture media: 300 μM, minimal essential media, 37° C., 5% CO2, 355/460, over 7.8 hours; for aqueous stability compared with methyl-7-nitrocoumarin carboxylate and 7-nitrocoumarin-3-carboxylic acid: FIG. 11
Procedure: In a further experiment, the aqueous stability of compounds 1 and 2 were compared with the compounds methyl-7-nitrocoumarin carboxylate and 7-nitrocoumarin-3-carboxylic acid in the absence of cell culture. Minimal essential media was equilibrated to 37° C., 5% CO2 for 2 hr and compounds were added to a final concentration of 300 μM. […]

[5] = target: T2, E. coli nitroreductase (nfsB); assay: Nitroreductase specificity: fluorescence in MDA231 NTR versus MDA231 WT cells; format: cell-based; details: for differential fluorescent signal MDA231 NTR versus MDA231 WT: 95% N2, 355/460, at 7.5 hours
Procedure: The human breast cancer cell line (MDA231^WT) and a clonal derivative (MDA231^NTR) engineered to overexpress the E. coli nitroreductase (nfsB) under the control of a constitutive promoter were seeded into 96-well plates at a density of 2×10^4 cells/well. When samples were equilibrated to 37° C., 95% N2, 5% CO2 for 2 hr and compound 2 or methyl 7-nitrocoumarin carboxylate (methyl 7-nitro-2-oxo-2H-chromene-3-carboxylate) were added to a final concentration of 300 μM. The fluorescence signal was monitored at 355/460 over a 7.5 hour time frame (FIG. 10).

[6] = Aerobic/anaerobic stability in cell-free culture media (fluorescence); format: physicochemical; details: 100 μM, 37° C., 4 hr, air or 95% N2
Procedure: Compounds 1-15 or methyl 7-nitrocoumarin carboxylate (methyl 7-nitro-2-oxo-2H-chromene-3-carboxylate) or 7-nitrocoumarin-3-carboylic acid or 6-chloro-9-nitro-5H-benzo[a]phenoxazin-5-one were added to a final concentration of 100 μM in cell-free culture media and were held at 37° C., 5% CO2 for 4 hr under either air or 95% N2. The fluorescence signal was monitored at 355/460 except for compounds 4 and 11 that were monitored at 405/585 and compounds 8, 10 and 6-Cl-9-nitro-5-oxo-5H-benzo[a]phenoxazine that were monitored at 355/585, 355/535 and 530/585 respectively (FIG. 12).

[7] = target: T2, E. coli nitroreductase (nfsB); assay: Rate of fluorescence signal generation in stirred HCT116 NTR cell suspension; format: cell-based; details: 300 μM, 355/460
Procedure: In a further exemplification, the human colorectal cancer cell line (HCT116^WT) and a clonal derivative (HCT116^NTR) engineered to express the reporter gene E. coli nitroreductase (nfsB) under the control of a constitutive promoter were suspended in stirred culture media at a density of 5×10^6 cells/ml. When samples were equilibrated to 37° C., 5% CO2, compound (2) (1-methyl-6-nitro-4(1H)-quinolinone) was added to a final concentration of 300 μM. Test groups were culture media alone (control), HCT116^WT and HCT116^NTR. The rate of fluorescence signal generation at 355/460 was monitored as a function of time (FIG. 4).

[8] = 300 μM, 95% N2, 355/460, 7.5 hour time frame

SMILES: CN(C)CCNC(=O)c1cc([N+](=O)[O-])cc2c(=O)c3ccccc3[nH]c12 [Compound 4, N-[2-(Dimethylamino)ethyl]-2-nitro-9-oxo-9,10-dihydro-4-acridinecarboxamide]
fluorescent output at Ex/Em 485/535 detecting Escherichia coli nfsB activity [1]: gave fluorescent output | cellular retention of fluorescence in nitroreductase expressing but not parental HCT116 cells [2]: possessing cellular retention properties

SMILES: O=c1cc[nH]c2ccc([N+](=O)[O-])cc12 [Compound 1, 6-Nitro-4(1H)-quinolinone]
retention of fluorescence in cells after wash ([2]; HCT116 WT:HCT116 NTR 50:50 co-culture, 100 μM for 1 hr, by 4 hours): no longer fluorescent | fluorescence in wells with compound alone (control) or parental MDA231 WT ([3]; 300 μM, 355/460): No detectable fluorescence | fluorescent signal generation by MDA231 DTD cells as a function of time ([3]; 300 μM, 355/460 (FIG. 6)): generate a fluorescent signal | fluorescent signal in the presence of human NQO1 expression [3]: gave rise to a fluorescent signal | increase in background florescence in culture media [4]: 1.4 fold | aqueous stability compared with methyl-7-nitrocoumarin carboxylate and 7-nitrocoumarin-3-carboxylic acid [4]: superior aqueous stability

SMILES: COC(=O)c1cc2ccc([N+](=O)[O-])cc2oc1=O [methyl 7-nitrocoumarin carboxylate, methyl 7-nitro-2-oxo-2H-chromene-3-carboxylate, reference compound]
fluorescence in control cell line MDA231 WT [5, 8]: measurable fluorescence | differential fluorescent signal MDA231 NTR versus MDA231 WT ([5]; 300 μM): 1.6 fold | fluorescence in cell-free culture media (instability) [6]: measurable fluorescence | increase in background florescence in culture media [4]: 4.2 fold

SMILES: CN(C)CCCNc1ccnc2cc([N+](=O)[O-])ccc12 [Compound 15, N^1,N^1-Dimethyl-N^3-(7-nitro-4-quinolinyl)-1,3-propanediamine]
cellular retention of fluorescence in nitroreductase expressing but not parental HCT116 cells [2]: possessing cellular retention properties

melting point: 94 to 96 °C
SMILES: COC(=O)CCCNS(=O)(=O)c1cccc2c([N+](=O)[O-])cccc12 [Compound 8, methyl 4-{[(5-nitro-1-naphthyl)sulfonyl]amino}butanoate]

SMILES: CN(C)CCCOc1ccnc2cc([N+](=O)[O-])ccc12 (as salt: trifluoroacetate) [Compound 14, N,N-dimethyl-3-[(7-nitro-4-quinolinyl)oxy]-1-propanamine]
melting point: 146 to 149 °C

SMILES: O=c1c(Cl)c2oc3cc([N+](=O)[O-])ccc3nc-2c2ccccc12 [6-chloro-9-nitro-5H-benzo[a]phenoxazin-5-one]
fluorescence in cell-free culture media (instability) [6]: measurable fluorescence; also recorded: lacks stability in culture medium under conditions of low oxygen

SMILES: Cc1cc(=O)c2cc([N+](=O)[O-])ccc2[nH]1 [Compound 3, 2-Methyl-6-nitro-4(1H)-quinolinone]
fluorescent signal in the presence of human NQO1 expression [3]: gave rise to a fluorescent signal; also recorded: generate a fluorescent signal

SMILES: Cn1ccc(=O)c2cc([N+](=O)[O-])ccc21 [Compound 2, 1-Methyl-6-nitro-4(1H)-quinolinone]
fluorescence in control cell line MDA231 WT [5, 8]: no detectable fluorescence | fluorescence in nitroreductase-expressing cell line MDA231 NTR [5, 8]: robust fluorescent signal | differential fluorescent signal MDA231 NTR versus MDA231 WT ([5]; 300 μM): 480 fold | performance as nitroreductase fluorescent reporter relative to methyl 7-nitrocoumarin carboxylate ([5]; FIG. 10): superiority | time by which reduction by HCT116 NTR cells approached completion ([7]; 5×10^6 cells/ml): ≤ 9 h | fluorescence in control or parental HCT116 WT cultures [7]: No detectable fluorescence | increase in background florescence in culture media [4]: 1.4 fold | aqueous stability compared with methyl-7-nitrocoumarin carboxylate and 7-nitrocoumarin-3-carboxylic acid [4]: superior aqueous stability

melting point: 99 to 101 °C
SMILES: CN(C)CCCCN1C(=O)c2cccc3cc(N)cc(c23)C1=O [Compound 19, 5-Amino-2-[4-(dimethylamino)butyl]-1H-benzo[de]isoquinoline-1,3(2H)-dione]

melting point: 212 to 214 °C
SMILES: Cn1ccc(=O)c2cc(N)ccc21 [Compound 17, 6-Amino-1-methyl-4(1H)-quinolinone]

melting point: 162 to 167 °C
SMILES: COC(=O)CCCNS(=O)(=O)c1ccc2cccc(N)c2c1 [Compound 22, Methyl 4-{[(8-amino-2-naphthyl)sulfonyl]amino}butanoate]

fluorescence in cell-free culture media (instability) [6]: measurable fluorescence | increase in background florescence in culture media [4]: 5.3 fold
SMILES: O=C(O)c1cc2ccc([N+](=O)[O-])cc2oc1=O [7-nitrocoumarin-3-carboxylic acid, reference compound]

melting point: 198 to 202 °C
SMILES: CN(C)CCNC(=O)c1cc(N)cc2c(=O)c3ccccc3[nH]c12 [Compound 18, 2-Amino-N-[2-(dimethylamino)ethyl]-9-oxo-9,10-dihydro-4-acridinecarboxamide]
